biological target: T1, epithelial sodium channel (ENaC) (Mus musculus, UniProt Q61180+Q9WU38+Q9WU39); assay: Ussing Chamber assay: inhibition of amiloride sensitive short circuit current (I_sc) in M-1 cells; format: cell-based; settings: not given
T1 construct: Mouse kidney M-1 cells were cultivated in DMEM; endogenous in cells; host or cells: mouse kidney M-1 cells (cortical collecting duct line), dexamethasone-treated, on transwell filters
T1 sequence (Q61180 1-699): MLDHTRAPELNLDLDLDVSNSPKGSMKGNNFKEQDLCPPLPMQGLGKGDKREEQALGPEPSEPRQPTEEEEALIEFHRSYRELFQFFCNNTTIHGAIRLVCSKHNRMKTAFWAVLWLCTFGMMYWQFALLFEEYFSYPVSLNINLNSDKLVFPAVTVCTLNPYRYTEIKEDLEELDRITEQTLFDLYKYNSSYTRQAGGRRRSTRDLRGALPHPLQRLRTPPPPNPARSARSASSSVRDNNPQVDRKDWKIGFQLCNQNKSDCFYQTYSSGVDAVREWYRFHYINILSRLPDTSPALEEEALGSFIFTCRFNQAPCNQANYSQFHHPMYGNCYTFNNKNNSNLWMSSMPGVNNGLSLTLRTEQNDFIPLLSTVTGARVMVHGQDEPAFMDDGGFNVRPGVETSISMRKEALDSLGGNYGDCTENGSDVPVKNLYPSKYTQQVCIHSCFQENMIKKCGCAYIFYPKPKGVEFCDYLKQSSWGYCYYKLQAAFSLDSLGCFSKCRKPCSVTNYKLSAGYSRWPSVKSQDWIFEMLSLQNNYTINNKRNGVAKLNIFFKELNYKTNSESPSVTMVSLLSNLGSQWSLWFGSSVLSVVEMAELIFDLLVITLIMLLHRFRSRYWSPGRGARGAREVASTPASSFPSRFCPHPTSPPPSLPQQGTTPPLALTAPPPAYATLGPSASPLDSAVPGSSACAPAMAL
T1 sequence (Q9WU38 1-638): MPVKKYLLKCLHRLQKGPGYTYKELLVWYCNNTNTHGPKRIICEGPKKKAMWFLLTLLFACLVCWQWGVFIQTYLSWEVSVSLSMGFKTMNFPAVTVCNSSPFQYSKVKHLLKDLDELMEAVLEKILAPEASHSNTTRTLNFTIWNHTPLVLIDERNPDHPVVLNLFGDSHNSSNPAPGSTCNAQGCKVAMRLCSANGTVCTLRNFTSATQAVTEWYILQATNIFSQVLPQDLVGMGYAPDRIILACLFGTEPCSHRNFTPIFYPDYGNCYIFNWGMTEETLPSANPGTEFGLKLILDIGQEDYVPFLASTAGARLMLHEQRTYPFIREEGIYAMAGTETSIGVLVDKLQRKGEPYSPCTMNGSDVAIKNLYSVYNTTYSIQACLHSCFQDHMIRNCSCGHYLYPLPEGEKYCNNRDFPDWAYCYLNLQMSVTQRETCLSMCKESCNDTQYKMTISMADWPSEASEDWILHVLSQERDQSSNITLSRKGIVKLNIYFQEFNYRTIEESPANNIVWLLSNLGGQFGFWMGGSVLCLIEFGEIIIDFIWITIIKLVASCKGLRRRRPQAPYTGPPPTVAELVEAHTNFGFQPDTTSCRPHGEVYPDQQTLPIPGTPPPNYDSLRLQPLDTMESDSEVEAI
T1 sequence (Q9WU39 1-655): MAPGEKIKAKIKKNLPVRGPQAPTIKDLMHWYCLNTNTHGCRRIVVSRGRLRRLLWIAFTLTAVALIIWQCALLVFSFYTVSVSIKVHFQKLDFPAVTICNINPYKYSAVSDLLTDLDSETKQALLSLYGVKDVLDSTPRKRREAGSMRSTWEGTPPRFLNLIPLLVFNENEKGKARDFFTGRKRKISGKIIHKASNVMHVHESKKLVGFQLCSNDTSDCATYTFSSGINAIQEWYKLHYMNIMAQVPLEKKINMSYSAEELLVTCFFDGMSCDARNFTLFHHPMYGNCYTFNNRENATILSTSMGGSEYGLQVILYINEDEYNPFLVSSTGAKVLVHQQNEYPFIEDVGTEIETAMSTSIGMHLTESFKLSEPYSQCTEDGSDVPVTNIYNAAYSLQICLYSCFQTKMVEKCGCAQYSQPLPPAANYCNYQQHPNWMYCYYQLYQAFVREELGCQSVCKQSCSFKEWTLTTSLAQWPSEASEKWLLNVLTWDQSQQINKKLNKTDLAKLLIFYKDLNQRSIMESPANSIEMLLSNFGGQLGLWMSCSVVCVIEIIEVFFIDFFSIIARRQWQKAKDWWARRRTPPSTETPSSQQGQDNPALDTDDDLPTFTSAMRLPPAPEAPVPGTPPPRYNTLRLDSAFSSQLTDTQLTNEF
Procedure: Ussing Chamber: Mouse kidney M-1 cells were cultivated in DMEM containing 5% FCS and 5 μM dexamethasone for 10 to 12 days on polyester transwell filters. Filters were inserted into a teflon-coated well-plate which fit into the in-house ussing chamber system. Prior to measurement the medium of M-1 cells was replaced with Caco-2 transport buffer (Invitrogen, Germany). During measurements, the Ussing chamber temperature was kept at 37° C. Short circuit currents (I_sc) were measured in the voltage-clamp mode using an in-house built amplifier (Boehringer Ingelheim, Biberach) with the software package Lab View for data acquisition and analysis. The transepithelial electrical resistance (TEER) was determined by the application of voltage steps of ±5 mV every 5 sec. Compounds were administered at a final concentration of 3 μM or at increasing concentrations (e.g. 1-3-10 μM) to the apical solution. At the end of each experiment the amiloride sensitive I_SC was measured by adding 3 μM amiloride to the apical compartment. Results are expressed as inhibition in percent of the amiloride effect or as IC50.
With the example compounds given above, the following IC50 values were determined in the Ussing Chamber assay: […]

Structure (SMILES)	IC50 [nM]
CCOP(=O)(CN1CCC(NC(N)=NC(=O)c2nc(Cl)c(N)nc2N)CC1)OCC [Example 4.16]	19

same assay, conditions: Ussing Chamber; mouse kidney M-1 cells on transwell filters; short circuit current; compound added to apical solution; 37° C.; read-out: IC50

Structure (SMILES)	IC50 [nM]
CN(C)CC(=O)N(C)c1ccc(NC(=O)CN2CCC(NC(N)=NC(=O)c3nc(Cl)c(N)nc3N)CC2)cc1 [Example 1.7]	1
Cn1ccc(NC(=O)CN2CCC(NC(N)=NC(=O)c3nc(Cl)c(N)nc3N)CC2)cc1=O [Example 1.15]	4
Cc1ccc(CNC(=O)CN2CCC(NC(N)=NC(=O)c3nc(Cl)c(N)nc3N)CC2)o1 [Example 1.27]	4
NC(=NC(=O)c1nc(Cl)c(N)nc1N)NC1CCN(CC(=O)Nc2cccc(C(=O)O)c2)CC1 [Example 2.2]	31
CCNC(=O)CN1CCC(NC(N)=NC(=O)c2nc(Cl)c(N)nc2N)CC1 [Example 1.33]	5
CS(=O)(=O)c1ccc(CNC(=O)CN2CCC(NC(N)=NC(=O)c3nc(Cl)c(N)nc3N)CC2)cc1 [Example 1.25]	3
CN1CCC(N(C)C(=O)c2ccc(NC(=O)CN3CCC(NC(N)=NC(=O)c4nc(Cl)c(N)nc4N)CC3)cc2)CC1 [Example 1.5]	6
NC(=O)c1ccc(NC(=O)CN2CCC(NC(N)=NC(=O)c3nc(Cl)c(N)nc3N)CC2)cc1 [Example 1.2]	2
COC(=O)Cn1ccc(NC(=O)CN2CCC(NC(N)=NC(=O)c3nc(Cl)c(N)nc3N)CC2)cc1=O [Example 1.16]	18
CCN(CC)CCOc1ccc(NC(=O)CN2CCC(NC(N)=NC(=O)c3nc(Cl)c(N)nc3N)CC2)cc1 [Example 1.12]	2
COC(=O)c1cccc(NC(=O)CN2CCC(NC(N)=NC(=O)c3nc(Cl)c(N)nc3N)CC2)c1 [Example 1.19]	3
NC(=NC(=O)c1nc(Cl)c(N)nc1N)NC1CCN(CC(=O)NCCCn2ccnc2)CC1 [Example 1.24]	7
NC(=NC(=O)c1nc(Cl)c(N)nc1N)NC1CCN(CC(=O)Nc2ccccc2C(=O)O)CC1 [Example 2.3]	47
COC(=O)c1ccccc1NC(=O)CN1CCC(NC(N)=NC(=O)c2nc(Cl)c(N)nc2N)CC1 [Example 1.18]	0.3
NC(=NC(=O)c1nc(Cl)c(N)nc1N)NC1CCN(CC(=O)NC2CCSCC2)CC1 [Example 1.31]	2
NC(=NC(=O)c1nc(Cl)c(N)nc1N)NC1CCN(CC(=O)Nc2ccc(S(N)(=O)=O)cc2)CC1 [Example 1.4]	2

Continued, values first:

IC50 [nM]	Structure (SMILES)
176	NC(=NC(=O)c1nc(Cl)c(N)nc1N)NC1CCN(CC(=O)N2CCC(C(=O)O)CC2)CC1 [Example 5.4]
55	COCCOCCOCCOCCN1CCC(NC(N)=NC(=O)c2nc(Cl)c(N)nc2N)CC1 [Example 4.12]
3	CC(C)(C)OC(=O)CN1CCC(NC(N)=NC(=O)c2nc(Cl)c(N)nc2N)CC1 [Example 4.18]
3	CC(C)NC(=O)CN1CCC(NC(N)=NC(=O)c2nc(Cl)c(N)nc2N)CC1 [Example 6.7]
3	NC(=NC(=O)c1nc(Cl)c(N)nc1N)NC1CCN(CC(=O)NCc2ccc(N3CCNC3=O)cc2)CC1 [Example 6.13]
6	NC(=NC(=O)c1nc(Cl)c(N)nc1N)NC1CCN(CC(=O)OCc2ccccc2)CC1 [Example 4.9]
12	NC(=NC(=O)c1nc(Cl)c(N)nc1N)NC1CCN(CC(=O)N2CCSCC2)CC1 [Example 4.15]
3	NC(=NC(=O)c1nc(Cl)c(N)nc1N)NC1CCN(CC(=O)NCc2nccs2)CC1 [Example 6.11]
2	COCCNC(=O)CN1CCC(NC(N)=NC(=O)c2nc(Cl)c(N)nc2N)CC1 [Example 6.12]
19	COC(=O)CCN1CCC(NC(=N)NC(=O)c2nc(Cl)c(N)nc2N)CC1 [Example 4.1]
10	NC(=NC(=O)c1nc(Cl)c(N)nc1N)NC1CCN(C(C(=O)NCc2ccccc2)C(=O)NCc2ccccc2)CC1 [Example 4.20]
266	N=C(NC(=O)c1nc(Cl)c(N)nc1N)NC1CCN(CC(=O)O)CC1 [Example 5.1]
10	CCSCCN1CCC(NC(N)=NC(=O)c2nc(Cl)c(N)nc2N)CC1 [Example 4.2]
27	COC(=O)CN1CCC(NC(N)=NC(=O)c2nc(Cl)c(N)nc2N)CC1 [Example 4.11]
30	NC(=NC(=O)c1nc(Cl)c(N)nc1N)NC1CCN(CCN2CCOCC2)CC1 [Example 4.7]
5	COc1ccc(CNC(=O)CN2CCC(N/C(N)=N/C(=O)c3nc(Cl)c(N)nc3N)CC2)cc1 [Example 6.1]
3	CN1CCN(c2cccc(CNC(=O)CN3CCC(NC(N)=NC(=O)c4nc(Cl)c(N)nc4N)CC3)c2)CC1 [Example 6.10]
27	COC(=O)CCCN1CCC(NC(N)=NC(=O)c2nc(Cl)c(N)nc2N)CC1 [Example 4.8]
9	CCOC(=O)C(C(=O)OCC)N1CCC(NC(N)=NC(=O)c2nc(Cl)c(N)nc2N)CC1 [Example 4.19]
1	NC(=NC(=O)c1nc(Cl)c(N)nc1N)NC1CCN(CC(=O)NCc2ccccc2SC(F)(F)F)CC1 [Example 6.3]
7	CCOC(=O)CN1CCC(NC(N)=NC(=O)c2nc(Cl)c(N)nc2N)CC1 [Example 4.6]
11	CCOC(=O)CNC(=O)CN1CCC(NC(N)=NC(=O)c2nc(Cl)c(N)nc2N)CC1 [Example 4.4]
27	COCCN(CCOC)C(=O)CN1CCC(NC(N)=NC(=O)c2nc(Cl)c(N)nc2N)CC1 [Example 6.2]
4	CC(C)(C)NC(=O)CN1CCC(NC(N)=NC(=O)c2nc(Cl)c(N)nc2N)CC1 [Example 4.22]
5	NC(=O)c1ccc(CNC(=O)CN2CCC(NC(N)=NC(=O)c3nc(Cl)c(N)nc3N)CC2)cc1 [Example 6.8]
36	CCN(CC)C(=O)CN1CCC(NC(N)=NC(=O)c2nc(Cl)c(N)nc2N)CC1 [Example 4.5]
17	CC(C)(C)OC(=O)C1CCN(C(=O)CN2CCC(NC(N)=NC(=O)c3nc(Cl)c(N)nc3N)CC2)CC1 [Example 4.24]
